# Laboratory results as given in patent publication US20240287074A1, “SALTS AND CRYSTALS” (Kinoxis Therapeutics Pty Ltd, priority 2020, published 2024).
# Where a name gives a salt, the structure may show the parent alone. Read-outs that look alike come from different tables or passages of the source.
# How the values were obtained:
# Type in all cases: physicochemical
# [1] = Storage of phosphate pattern 2 at 40° C./75% RH; settings: about 16 hours
# Protocol: The samples were analyzed by XRPD.
# [2] = Solvent solubility screen of phosphate salt; settings: for solubility: read-out: Approx. Solubility
# Protocol: Selected solvent was added in 50 μL aliquots to approximately 10 mg of poorly crystalline phosphate pattern (obtained from above lyophilisation). Between each addition, the mixture was checked for dissolution and where no dissolution was apparent, the mixture was heated to about 40° C. and checked again. This procedure was continued until dissolution was observed or until 2 mL of solvent had been added. Samples in which dissolution was observed were stored uncapped at ambient temperature to allow evaporation. Samples in which dissolution was not observed were filtered via centrifugation. All observed solids were analyzed by XRPD. The solvent systems used during the solvent solubility screen are detailed in Table 3.
# [3] = Primary salt screen: XRPD pattern after drying and after 40° C./75% RH
# Protocol: The following procedure was used: • Approximately 30 mg of 1-methyl-1,4,5,10-tetrahydropyrazolo[3,4-b][1,5]benzodiazepine freebase was weighed into 5×1.5 mL glass vials. • 300 μL of selected solvent system was added to each vial to form a mobile slurry, and a beige slurry was observed. • 1.05 (or 0.525 for the hemi experiments) equivalents of acid counterion (see Table 1) was added to each sample and initial observations were recorded. • The samples were temperature cycled between ambient and 40° C. in 4-hour cycles for about 72 hours. • The samples were collected, and observations made. • Samples in which solids were observed were filtered via centrifugation and the solids were loaded onto a multi-well XRPD plate and analyzed by XRPD. • Samples in which no solids were observed were uncapped and left undisturbed to allow evaporation at ambient temperature.
# [4] = Salt disproportionation studies in deionized water; settings: about 24 hours; for salt disproportionation: slurry in deionized water, ambient temperature
# Protocol: The following procedure was used during the salt disproportionation studies: • Approximately 20 mg of phosphate form 1 (Example 3) and L-tartrate form 1 (Example 5) were weighed into 2 mL glass vials. • Deionized water was added to each sample in 100 μL aliquots until a mobile slurry was observed. • The slurries were agitated at ambient temperature for about 24 hours. • The slurries were collected and filtered via centrifugation. • The isolated solids were analyzed by XRPD. • The pH of the mother liquors were recorded.
# [5] = Thermodynamic solubility in PBS buffer pH 7.4
# Protocol: The thermodynamic solubility of freebase (example 1), phosphate form 1 (example 3) and L-tartrate form 1 (example 5) were assessed in phosphate buffered saline (PBS) buffer at pH 7.4 according to the following procedure: • Approximately 30 mg of each form was weighed into 2 mL glass vials. • 100 μL of buffer solution was added to each vial until partial dissolution was observed. • The observed slurries were agitated at ambient temperature for about 24 hours. • The samples were collected, and observations were recorded. • The samples were filtered via centrifugation. • The pH of the mother liquors were recorded. • The concentration of the mother liquors were recorded by HPLC.
# [6] = 1-week stability studies (XRPD, HPLC); settings: 1 week; ambient temperature, light and humidity; 40° C./75% RH; 80° C.
# Protocol: The isolated 1-methyl-1,4,5,10-tetrahydropyrazolo[3,4-b][1,5]benzodiazepine freebase was characterized by TG/DTA, DSC, DVS with post-DVS, XRPD, HPLC, ^1H NMR and LC-MS, as per the methods detailed above. The 1-methyl-1,4,5,10-tetrahydropyrazolo[3,4-b][1,5]benzodiazepine freebase was stored at 40° C./75% relative humidity (RH) for 1 week to determine the stability of the material at increased RH and to identify potential hydrate formation.
# One-week stability studies were conducted on the freebase (example 1), phosphate form 1 (example 3) and L-tartrate form 1 (example 5) salts using the following procedures: • Approximately 20 mg of each form was weighed into 3×2 mL glass vials. • One vial for each form was stored under the following conditions for 1-week: • 1. Ambient temperature, light and humidity (unsealed vial) • 2. 40° C./75% RH (unsealed vial) • 3. 80° C. (sealed vial) • The samples were collected after 1-week and observations were made. • The solids were analyzed by XRPD and HPLC.
# [7] = Hydration studies in methanol/water mixtures; settings: MeOH/water mixtures, water activity 0.2, 0.6, 0.8, about 24 hours
# Protocol: The following procedure was used during the hydration studies: • Approximately 20 mg of phosphate form 1 (Example 3) and L-tartrate form 1 (Example 5) were weighed into 2 mL glass vials. • Selected methanol/deionized water mixtures (see Table 5) were added to each sample in 100 μL aliquots until a mobile slurry was observed. • The slurries were agitated at ambient temperature for about 24 hours. • The slurries were collected and filtered via centrifugation. • The isolated solids were analyzed by XRPD. • The pH of the mother liquors were recorded.
# [8] = Dynamic / gravimetric vapour sorption (DVS/GVS) hygroscopicity; settings: for hygroscopicity: DVS, 25° C.; for DVS mass increase: at 90% RH
# Protocol: Approximately, 10-20 mg of sample was placed into a mesh vapour sorption balance pan and loaded into a DVS Intrinsic dynamic vapour sorption balance by Surface Measurement Systems. The sample was subjected to a ramping profile from 40-90% relative humidity (RH) at 10% increments, maintaining the sample at each step until a stable weight had been achieved (dm/dt 0.004%, minimum step length 30 minutes, maximum step length 500 minutes) at 25° C. After completion of the sorption cycle, the sample was dried using the same procedure to 0% RH and then a second sorption cycle back to 40% RH. Two cycles were performed. The weight change during the sorption/desorption cycles were plotted, allowing for the hygroscopic nature of the sample to be determined. XRPD analysis was then carried out on any solid retained.
# Approximately 10-20 mg of sample was placed into a mesh vapour sorption balance pan and loaded into an IGASorp Moisture Sorption Analyser balance by Hiden Analytical. The sample was subjected to a ramping profile from 40-90% relative humidity (RH) at 10% increments, maintaining the sample at each step until a stable weight had been achieved (98% step completion, minimum step length 30 minutes, maximum step length 60 minutes) at 25° C. After completion of the sorption cycle, the sample was dried using the same procedure to 0% RH, and finally taken back to the starting point of 40% RH. Two cycles were performed. The weight change during the sorption/desorption cycles were plotted, allowing for the hygroscopic nature of the sample to be determined.
smiles,measurement,setting,value
"Cn1ncc2c1Nc1ccccc1NC2 [phosphate pattern 2, phosphoric acid addition salt of 1-methyl-1,4,5,10-tetrahydropyrazolo[3,4-b][1,5]benzodiazepine]",form by XRPD upon storage at 40° C./75% RH,[1],completely converted to form 1
same,solubility,"[2]; 1,4-dioxane, 40 °C, organic solvent or mixture, thermodynamic from solid, 1,4-Dioxane",< 5000 µg/mL
same,solubility,"[2]; 2-Butanol, 40 °C, organic solvent or mixture, thermodynamic from solid, 2-Butanol",< 5000 µg/mL
same,solubility,"[2]; 2-Ethoxyethanol, 40 °C, organic solvent or mixture, thermodynamic from solid, 2-Ethoxyethanol",< 5000 µg/mL
same,solubility,"[2]; 2-methyl tetrahydrofuran, 40 °C, organic solvent or mixture, thermodynamic from solid, 2-Methyl tetrahydrofuran",< 5000 µg/mL
same,solubility,"[2]; 2-propanol, 40 °C, organic solvent or mixture, thermodynamic from solid, 2-Propanol",< 5000 µg/mL
same,solubility,"[2]; 80% 2-propanol/20% water (% v/v), 40 °C, organic solvent or mixture, thermodynamic from solid, 80% 2-Propanol/20% water (% v/v)",< 5000 µg/mL
same,solubility,"[2]; 80% acetone/20% water (% v/v), 40 °C, organic solvent or mixture, thermodynamic from solid, 80% Acetone/20% water (% v/v)",< 5000 µg/mL
same,solubility,"[2]; 80% acetonitrile/20% water (% v/v), 40 °C, organic solvent or mixture, thermodynamic from solid, 80% Acetonitrile/20% water (% v/v)",< 5000 µg/mL
same,solubility,"[2]; 80% methanol/20% water (% v/v), 40 °C, organic solvent or mixture, thermodynamic from solid, 80% Methanol/20% water (% v/v)",< 5000 µg/mL
same,Approx. Solubility,[2]; N-Methyl pyrrolidone,17000 µg/mL
same,solubility,"[2]; N-methyl pyrrolidone, organic solvent or mixture, thermodynamic from solid, N-Methyl pyrrolidone",10000 to 100000 µg/mL
same,Approx. Solubility,[2]; Water,17000 µg/mL
same,solubility,"[2]; acetone, 40 °C, organic solvent or mixture, thermodynamic from solid, Acetone",< 5000 µg/mL
same,solubility,"[2]; acetonitrile, 40 °C, organic solvent or mixture, thermodynamic from solid, Acetonitrile",< 5000 µg/mL
same,solubility,"[2]; anisole, 40 °C, organic solvent or mixture, thermodynamic from solid, Anisole",< 5000 µg/mL
same,solubility,"[2]; chloroform, 40 °C, organic solvent or mixture, thermodynamic from solid, Chloroform",< 5000 µg/mL
same,solubility,"[2]; ethanol, 40 °C, organic solvent or mixture, thermodynamic from solid, Ethanol",< 5000 µg/mL
same,solubility,"[2]; ethanol/water Aw 0.4, 40 °C, organic solvent or mixture, thermodynamic from solid, Ethanol/water Aw 0.4",< 5000 µg/mL
same,solubility,"[2]; ethanol/water Aw 0.5, 40 °C, organic solvent or mixture, thermodynamic from solid, Ethanol/water Aw 0.5",< 5000 µg/mL
same,solubility,"[2]; ethanol/water Aw 0.6, 40 °C, organic solvent or mixture, thermodynamic from solid, Ethanol/water Aw 0.6",< 5000 µg/mL
same,solubility,"[2]; ethanol/water Aw 0.7, 40 °C, organic solvent or mixture, thermodynamic from solid, Ethanol/water Aw 0.7",< 5000 µg/mL
same,solubility,"[2]; ethanol/water Aw 0.8, 40 °C, organic solvent or mixture, thermodynamic from solid, Ethanol/water Aw 0.8",< 5000 µg/mL
same,solubility,"[2]; ethyl acetate, 40 °C, organic solvent or mixture, thermodynamic from solid, Ethyl acetate",< 5000 µg/mL
same,solubility,"[2]; ethyl formate, 40 °C, organic solvent or mixture, thermodynamic from solid, Ethyl formate",< 5000 µg/mL
same,solubility,"[2]; ethyleneglycol, 40 °C, organic solvent or mixture, thermodynamic from solid, Ethyleneglycol",< 5000 µg/mL
same,solubility,"[2]; isopropyl acetate, 40 °C, organic solvent or mixture, thermodynamic from solid, Isopropyl acetate",< 5000 µg/mL
same,solubility,"[2]; methanol, 40 °C, organic solvent or mixture, thermodynamic from solid, Methanol",< 5000 µg/mL
same,solubility,"[2]; methylethyl ketone, organic solvent or mixture, thermodynamic from solid, Methylethyl ketone",< 5000 µg/mL
same,solubility,"[2]; methylisobutyl ketone, organic solvent or mixture, thermodynamic from solid, Methylisobutyl ketone",< 5000 µg/mL
same,solubility,"[2]; nitromethane, organic solvent or mixture, thermodynamic from solid, Nitromethane",< 5000 µg/mL
same,solubility,"[2]; tert-butylmethyl ether, organic solvent or mixture, thermodynamic from solid, tert-Butylmethyl ether",< 5000 µg/mL
same,solubility,"[2]; tetrahydrofuran, organic solvent or mixture, thermodynamic from solid, Tetrahydrofuran",< 5000 µg/mL
same,solubility,"[2]; water, thermodynamic from solid, Water",10000 to 100000 µg/mL
"Cn1ncc2c1Nc1ccccc1NC2 [L-tartrate form 1, L-tartaric acid addition salt of 1-methyl-1,4,5,10-tetrahydropyrazolo[3,4-b][1,5]benzodiazepine]",thermal stability and hygroscopicity,[3]; conclusion of salt screen,acceptable thermal stability and hygroscopicity
same,Post-Drying (XRPD pattern),"[3]; oven at 40° C. for about 24 hours, listed as Tartrate pattern 1",Pattern 1
same,Comments (stability),[3]; salt screen summary,Good
same,Post 40° C./75% RH (XRPD pattern),"[3]; stability chamber at 40° C./75% RH for about 24 hours, listed as Tartrate pattern 1",Pattern 1
same,change in XRPD pattern,[4]; material slurried in water,No change in XRPD pattern
same,salt disproportionation,[4],Salt disproportionation was not observed
same,salt disproportionation,[4]; listed as L-tartrate,No evidence
same,solubility,"[5]; PBS buffer at pH 7.4, ambient temperature, about 24 hours, HPLC",6300 µg/mL
same,pH (t = 24 h),[5]; mother liquor of PBS pH 7.4 slurry,3.36
same,changes in form by XRPD,[6],no changes in form
same,changes in purity by HPLC,[6],did not identify any significant changes in purity
same,change in XRPD pattern,[7],No change in XRPD pattern
same,hydrate formation,[7],Hydrate formation was not observed
same,hydrate formation,[7]; listed as L-tartrate,No evidence
same,change in form by XRPD post-DVS analysis,[8],No evidence of form changes or hydrate formation
same,hygroscopicity,[8],slightly hygroscopic
same,hygroscopicity,[8]; listed as L-tartrate salt,slightly hygroscopic
same,DVS mass increase,[8],about 0.6%
same,DVS mass increase,[8]; listed as L-tartrate salt,about 0.6 wt. %
same,change in form by XRPD post-DVS analysis,[8]; listed as L-tartrate salt,no changes in form
